Experimental data reported in ChEMBL document CHEMBL1126894 (J Med Chem, 1993).
Counter-ions that a name gives are not always drawn.

Key:
[1] = target: T1, 5-hydroxytryptamine receptor 1A (Rattus norvegicus, UniProt P19327); assay: Binding affinity by measuring displacement of [3H]-8-OH-DPAT from 5-hydroxytryptamine 1A receptor in rat hippocampus; type: tissue-based
T1 sequence (P19327 whole entry): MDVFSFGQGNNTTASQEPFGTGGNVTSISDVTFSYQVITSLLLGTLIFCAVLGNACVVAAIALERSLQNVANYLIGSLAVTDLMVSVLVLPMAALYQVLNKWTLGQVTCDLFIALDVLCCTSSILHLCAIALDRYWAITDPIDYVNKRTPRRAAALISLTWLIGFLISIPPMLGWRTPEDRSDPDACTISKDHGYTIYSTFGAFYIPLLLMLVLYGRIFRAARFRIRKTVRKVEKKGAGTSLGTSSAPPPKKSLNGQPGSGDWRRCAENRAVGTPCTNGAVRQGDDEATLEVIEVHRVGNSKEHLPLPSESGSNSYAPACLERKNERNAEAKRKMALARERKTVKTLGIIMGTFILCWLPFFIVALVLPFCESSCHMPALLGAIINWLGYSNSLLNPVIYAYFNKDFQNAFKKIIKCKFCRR

Mus musculus [2] = assay: Ability to reverse scopolamine-induced amnesia in a passive avoidance test to assess memory impairment administered perorally 10 mg/kg; type: functional; conditions: route oral
Rattus norvegicus [3] = assay: Anticonflict activity on water lick conflict test in rats is no of shocks in 5 min. administered perorally 1 mg/kg (no. of rats); type: functional; conditions: route oral
Mus musculus [4] = assay: Ability to reverse scopolamine-induced amnesia in a passive avoidance test to assess memory impairment administered perorally 3 mg/kg; type: functional; conditions: route oral
Rattus norvegicus [5] = assay: Anticonflict activity on water lick conflict test in rats by measuring no. of shocks in 5 min. administered perorally at 3 mg/kg; type: functional; conditions: route oral
Mus musculus [6] = assay: Ability to reverse scopolamine-induced amnesia in a passive avoidance test to assess memory impairment administered perorally 30 mg/kg; type: functional; conditions: route oral
Rattus norvegicus [7] = assay: Anticonflict activity on water lick conflict test in rats by measuring no. of shocks in 5 min. administered perorally at 30 mg/kg; type: functional; conditions: route oral
[8] = target: T1, 5-hydroxytryptamine receptor 1A; assay: Inhibitory concentration against 5-hydroxytryptamine 1A receptor
D(2) dopamine receptor = D(2) dopamine receptor (Homo sapiens, UniProt P14416); assay: Binding affinity for DA2 receptor
Mus musculus [9] = assay: Ability to reverse scopolamine-induced amnesia in a passive avoidance test to assess memory impairment; administered perorally 5 mg/kg (no. of mice); type: functional; conditions: route oral
Rattus norvegicus [10] = assay: Anticonflict activity on water lick conflict test in rats is no. of shocks in 5 min; administered perorally 10 mg/kg (no. of rats); type: functional; conditions: route oral
Mus musculus [11] = assay: Ability to reverse scopolamine-induced amnesia in a passive avoidance test to assess memory impairment administered perorally 1 mg/kg (no. of mice); type: functional; conditions: route oral
Mus musculus [12] = assay: Ability to reverse scopolamine-induced amnesia in a passive avoidance test to assess memory impairment administered perorally 1 mg/kg; type: functional; conditions: route oral
[13] = target: T1, 5-hydroxytryptamine receptor 1A; assay: Binding affinity for 5-hydroxytryptamine 1A receptor by use of [3H]8-OH-DPAT in male rat
Mus musculus [14] = assay: Ability to reverse scopolamine-induced amnesia in a passive avoidance test to assess memory impairment administered perorally at 30 mg/kg; type: functional; conditions: route oral
Rattus norvegicus [15] = assay: Anticonflict activity on water lick conflict test in rats by measuring no. of shocks in 5 min. administered perorally at 10 mg/kg; type: functional; conditions: route oral
Rattus norvegicus [16] = assay: Anticonflict activity on water lick conflict test in rats by measuring no. of shocks in 5 min. administered perorally at 1 mg/kg; type: functional; conditions: route oral

D(2) dopamine receptor, sequence (P14416 whole entry): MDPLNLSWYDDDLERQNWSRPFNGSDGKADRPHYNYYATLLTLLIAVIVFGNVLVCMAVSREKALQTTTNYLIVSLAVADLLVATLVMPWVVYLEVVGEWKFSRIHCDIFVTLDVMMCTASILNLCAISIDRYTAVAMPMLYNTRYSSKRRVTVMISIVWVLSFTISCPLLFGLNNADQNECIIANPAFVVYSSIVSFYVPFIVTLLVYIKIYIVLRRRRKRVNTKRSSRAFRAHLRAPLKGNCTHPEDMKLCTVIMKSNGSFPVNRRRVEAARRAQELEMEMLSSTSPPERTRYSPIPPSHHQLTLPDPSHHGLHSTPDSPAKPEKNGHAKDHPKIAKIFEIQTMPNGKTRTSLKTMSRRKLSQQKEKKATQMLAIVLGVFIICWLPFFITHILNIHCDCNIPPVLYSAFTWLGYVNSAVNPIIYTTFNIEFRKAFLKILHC

Question: For O=C(NC1CCCCC1)[C@H]1Cc2c(sc3ccccc23)CN1, which IC50 [1] is on record?
Answer: 0.0272 µM

Question: CCCCCCNC(=O)[C@H]1Cc2c(sc3ccccc23)CN1 was tested. Which IC50 [1] did it give?
Answer: 0.0912 µM

Question: How did the IC50 [1] turn out when O=C(OC1CCCC1)[C@H]1Cc2c(sc3ccccc23)CN1 was run?
Answer: 0.121 µM

Question: With Cl.O=C(NC1CCCCC1O)[C@H]1Cc2c(sc3ccccc23)CN1 (stereo partly drawn) as the compound, how does the “Latency to step through” value (Mus musculus [2]) read?
Answer: 41.6 s

Question: And the No. of shocks (Rattus norvegicus [3])?
Answer: 21.6

Question: What about the “Latency to step through” value (Mus musculus [4]) of the same compound?
Answer: 68.2 s

Question: What about the No. of shocks (Rattus norvegicus [5]) of the same compound?
Answer: 34.9

Question: And the IC50 [1]?
Answer: 0.148 µM

Question: What about the “Latency to step through” value (Mus musculus [6]) of the same compound?
Answer: 50.8 s

Question: What about the No. of shocks (Rattus norvegicus [7]) of the same compound?
Answer: 26.1

Question: With O=C(NCC1CCCCC1)[C@H]1Cc2c(sc3ccccc23)CN1 as the compound, how does the IC50 [1] read?
Answer: 0.0202 µM

Question: How did the IC50 [1] turn out when O=C(NC1CCC1)[C@H]1Cc2c(sc3ccccc23)CN1 was run?
Answer: 0.232 µM

Question: With O=C(NC1CCCCCC1)[C@H]1Cc2c(sc3ccccc23)CN1 as the compound, how does the IC50 [1] read?
Answer: 0.0284 µM

Question: O=C(NN1CCCCC1)[C@H]1Cc2c(sc3ccccc23)CN1 was tested. Which IC50 [1] did it give?
Answer: 0.211 µM

Question: For O=C(OC1CCCCCCC1)[C@H]1Cc2c(sc3ccccc23)CN1, which IC50 [1] is on record?
Answer: 0.0673 µM

Question: How did the IC50 [8] turn out when CCCCCCCNC(=O)[C@H]1Cc2c(sc3ccccc23)CN1 was run?
Answer: 0.126 µM

Question: For O=C1[C@@H]2[C@H]3CC[C@H](C3)[C@@H]2C(=O)N1CCCCN1CCN(c2ncccn2)CC1 [TANDOSPIRONE HYDROCHLORIDE], which Ki (D(2) dopamine receptor) is on record?
Answer: 0.028 µM

Question: CCC(CC)NC(=O)[C@H]1Cc2c(sc3ccccc23)CN1 was tested. Which IC50 [1] did it give?
Answer: 0.127 µM

Question: With O=C(NC1CC2CCC1C2)[C@H]1Cc2c(sc3ccccc23)CN1 (stereo partly drawn) as the compound, how does the IC50 [1] read?
Answer: 0.0664 µM

Question: O=C(OC1CCCCC1)[C@H]1Cc2c(sc3ccccc23)CN1 was tested. Which IC50 [1] did it give?
Answer: 0.0504 µM

Question: How did the IC50 [1] turn out when O=C(OC1CCCCCC1)[C@H]1Cc2c(sc3ccccc23)CN1 was run?
Answer: 0.0552 µM

Question: Which “Latency to step through” value (Mus musculus [9]) does the source give for CN1C(=O)CN=C(c2ccccc2)c2cc(Cl)ccc21 [DIAZEPAM] here?
Answer: 10.6 s

Question: And the No. of shocks (Rattus norvegicus [10])?
Answer: 25.6

Question: With O=C(NC1CCCCC1)[C@@H]1Cc2c(sc3ccccc23)CN1 as the compound, how does the IC50 [1] read?
Answer: > 5 µM

Question: How did the IC50 [1] turn out when CC(C)(C)C1CCC(NC(=O)[C@H]2Cc3c(sc4ccccc34)CN2)CC1 (stereo partly drawn) was run?
Answer: 0.0527 µM

Question: For O=C(NC12CC3CC(CC(C3)C1)C2)[C@H]1Cc2c(sc3ccccc23)CN1, which IC50 [1] is on record?
Answer: 0.0616 µM

Question: How did the “Latency to step through” value (Mus musculus [11]) turn out when CN1[C@@H]2C[C@@H](OC(=O)[C@H](CO)c3ccccc3)C[C@H]1[C@@H]1O[C@@H]12 [SCOPOLAMINE] was run?
Answer: 16 s

Question: With O=C(NCc1ccc2c(c1)OCO2)C1Cc2c(sc3ccccc23)CN1 (single isomer, unassigned) as the compound, how does the IC50 [1] read?
Answer: > 5 µM

Question: For O=C(NC1CCCC1)[C@H]1Cc2c(sc3ccccc23)CN1, which IC50 [1] is on record?
Answer: 0.111 µM

Question: Which IC50 [1] does the source give for O=C(NC1CCCCCCC1)[C@H]1Cc2c(sc3ccccc23)CN1 here?
Answer: 0.0229 µM

Question: Which IC50 [1] does the source give for C[C@H](NC(=O)[C@H]1Cc2c(sc3ccccc23)CN1)c1ccccc1 here?
Answer: 0.0584 µM

Question: For CC1CCCCC1NC(=O)[C@H]1Cc2c(sc3ccccc23)CN1 (stereo partly drawn), which IC50 [1] is on record?
Answer: 0.028 µM

Question: With O=C(Nc1ccccc1)[C@H]1Cc2c(sc3ccccc23)CN1 as the compound, how does the IC50 [1] read?
Answer: 0.272 µM

Question: How did the IC50 [1] turn out when Cc1ccc(CNC(=O)[C@H]2Cc3c(sc4ccccc34)CN2)cc1 was run?
Answer: 0.133 µM

Question: CC1CCC(NC(=O)[C@H]2Cc3c(sc4ccccc34)CN2)CC1 (stereo partly drawn) was tested. Which IC50 [1] did it give?
Answer: 0.0324 µM

Question: Which “Latency to step through” value (Mus musculus [12]) does the source give for Cl.O=C(NCc1ccc2c(c1)OCO2)[C@H]1Cc2c(sc3ccccc23)CN1 here?
Answer: 94.6 s

Question: And the “Latency to step through” value (Mus musculus [4])?
Answer: 89 s

Question: And the Ki [13]?
Answer: 0.0531 µM

Question: And the “Latency to step through” value (Mus musculus [14])?
Answer: 104.7 s

Question: What about the No. of shocks (Rattus norvegicus [5]) of the same compound?
Answer: 22.9

Question: And the IC50 [1]?
Answer: 0.0531 µM

Question: And the No. of shocks (Rattus norvegicus [15])?
Answer: 28.3

Question: And the No. of shocks (Rattus norvegicus [16])?
Answer: 22.1
